From patent US12473296B2, “Perk inhibiting compounds” (HiberCell, Inc., priority 2019, dated 2025)

Legend:
[1] = biological target: EIF2AK3 (PERK) catalytic domain (amino acids 536-1116) (Homo sapiens (Human), UniProt Q9NZJ5); experiment: PERK in vitro activity assay (isolated), TR-FRET kinase assay; conditions: isolated PERK enzyme, 1.5 μM ATP, GFP-eIF2a substrate; read-out: Biochemical IC50
Summary of the method: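 Human PERK catalytic domain (aa 536-1116) with 100-200 nM GFP-eIF2a in 50 mM HEPES pH 7.5, 10 mM MgCl2, 1.0 mM EGTA, 0.01% Brij-35; enzyme-started reaction run 45 min at room temperature. Stopped with 10 mM EDTA, 2 nM Tb-anti-phospho-eIF2a added for 90 min; IC50 from TR-FRET ratio by 4-parameter logistic fit.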

PERK = PERK (Homo sapiens (Human), UniProt Q9NZJ5); experiment: PERK cellular assay (TR-FRET, HEK293-EGFP-eIF2α cells, tunicamycin-induced ER stress); type: cell-based; conditions: tunicamycin 2 hours, read-out: Cellular IC50 (μM) (EIF2a)
PERK, sequence (Q9NZJ5 30-1116): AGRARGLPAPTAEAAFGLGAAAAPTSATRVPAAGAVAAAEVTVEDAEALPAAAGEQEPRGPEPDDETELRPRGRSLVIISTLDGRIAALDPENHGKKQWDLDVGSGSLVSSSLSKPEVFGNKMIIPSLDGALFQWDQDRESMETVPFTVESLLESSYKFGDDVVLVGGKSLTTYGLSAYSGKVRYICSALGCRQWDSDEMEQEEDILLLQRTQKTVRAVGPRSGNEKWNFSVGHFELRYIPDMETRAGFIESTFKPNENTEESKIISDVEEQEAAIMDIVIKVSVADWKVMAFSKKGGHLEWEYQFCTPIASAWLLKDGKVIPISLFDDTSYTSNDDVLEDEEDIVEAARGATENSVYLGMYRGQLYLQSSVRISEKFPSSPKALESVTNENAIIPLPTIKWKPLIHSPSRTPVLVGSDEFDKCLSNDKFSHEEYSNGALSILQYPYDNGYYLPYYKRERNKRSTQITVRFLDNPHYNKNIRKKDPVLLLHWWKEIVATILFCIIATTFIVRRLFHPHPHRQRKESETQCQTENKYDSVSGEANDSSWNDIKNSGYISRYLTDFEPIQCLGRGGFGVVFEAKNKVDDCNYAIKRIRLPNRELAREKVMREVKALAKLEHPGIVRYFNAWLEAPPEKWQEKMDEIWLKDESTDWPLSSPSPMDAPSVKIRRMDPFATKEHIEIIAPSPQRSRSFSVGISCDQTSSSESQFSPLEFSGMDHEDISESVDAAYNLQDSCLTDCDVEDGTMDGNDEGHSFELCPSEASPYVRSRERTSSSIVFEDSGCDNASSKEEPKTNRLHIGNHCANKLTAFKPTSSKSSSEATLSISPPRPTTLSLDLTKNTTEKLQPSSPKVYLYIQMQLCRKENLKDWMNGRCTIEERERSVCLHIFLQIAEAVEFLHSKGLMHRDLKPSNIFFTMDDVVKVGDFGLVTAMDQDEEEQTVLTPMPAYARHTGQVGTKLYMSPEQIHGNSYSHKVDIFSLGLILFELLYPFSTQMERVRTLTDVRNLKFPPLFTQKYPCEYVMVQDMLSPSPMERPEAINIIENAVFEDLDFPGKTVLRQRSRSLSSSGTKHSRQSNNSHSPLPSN
Summary of the method: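 After 2 h tunicamycin ([…]) stress following 30 min compound pretreatment at 37 °C, lysed HEK293-EGFP-eIF2α cells were read by TR-FRET. IC50 derived by 4-parameter logistic fitting of percent inhibition, DMSO-normalized, from 10-point 3-fold dilutions.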

EIF2AK3 (PERK) catalytic domain (amino acids 536-1116), sequence (Q9NZJ5 536-1116): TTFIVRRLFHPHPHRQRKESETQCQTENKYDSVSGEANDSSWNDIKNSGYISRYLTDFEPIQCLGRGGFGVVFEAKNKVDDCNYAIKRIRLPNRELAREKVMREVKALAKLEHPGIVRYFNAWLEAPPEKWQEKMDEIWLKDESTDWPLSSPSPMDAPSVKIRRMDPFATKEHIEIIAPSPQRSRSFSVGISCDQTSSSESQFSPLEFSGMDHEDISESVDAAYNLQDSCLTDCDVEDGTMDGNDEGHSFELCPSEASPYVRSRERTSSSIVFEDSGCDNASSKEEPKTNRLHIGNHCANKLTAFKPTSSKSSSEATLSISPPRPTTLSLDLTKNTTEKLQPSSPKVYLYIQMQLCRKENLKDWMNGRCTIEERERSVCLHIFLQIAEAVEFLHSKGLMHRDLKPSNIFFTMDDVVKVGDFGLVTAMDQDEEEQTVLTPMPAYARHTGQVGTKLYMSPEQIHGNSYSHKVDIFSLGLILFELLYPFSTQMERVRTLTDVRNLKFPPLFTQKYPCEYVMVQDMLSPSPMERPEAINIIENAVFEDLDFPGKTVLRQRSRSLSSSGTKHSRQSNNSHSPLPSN

Row | IC50 [1] [µM] | IC50 (PERK) [µM] | Compound
1 | 0.001 to 0.025 | 0.101 to 0.25 | CCc1cccc(CC(=O)Nc2ccc(-c3cnc(N)c(C(=O)NC(C)C)c3)c(C)c2)c1 [Example 205, 2-amino-5-(4-(2-(3-ethylphenyl)acetamido)-2-methylphenyl)-N-isopropylnicotinamide]
2 | 0.251 to 0.5 | 2 to 3 | CCc1ccc(CC(=O)Nc2ccc(-c3cnc(N)c(C(=O)NC(C)C)c3)c(C)c2)cc1 [Example 206, 2-amino-5-(4-(2-(4-ethylphenyl)acetamido)-2-methylphenyl)-N-isopropylnicotinamide]
3 | 0.001 to 0.025 | 0.251 to 0.5 | Cc1cc(NC(=O)Cc2cccc3ccccc23)ccc1-c1cnc(N)c(C(=O)NC(C)C)c1 [Example 207, 2-amino-N-isopropyl-5-(2-methyl-4-(2-(naphthalen-1-yl)acetamido)phenyl)nicotinamide]
4 | 0.026 to 0.05 | 0.101 to 0.25 | Cc1cc(NC(=O)Cc2ccc3ccccc3c2)ccc1-c1cnc(N)c(C(=O)NC(C)C)c1 [Example 208, 2-amino-N-isopropyl-5-(2-methyl-4-(2-(naphthalen-2-yl)acetamido)phenyl)nicotinamide]
5 | 0.101 to 0.25 | 1 to 2 | Cc1cc(NC(=O)Cc2ccc3ncccc3c2)ccc1-c1cnc(N)c(C(=O)NC(C)C)c1 [Example 209, 2-amino-N-isopropyl-5-(2-methyl-4-(2-(quinolin-6-yl)acetamido)phenyl)nicotinamide]
6 | 0.051 to 0.1 | 1 to 2 | Cc1cc(NC(=O)Cc2cncc3ccccc23)ccc1-c1cnc(N)c(C(=O)NC(C)C)c1 [Example 210, 2-amino-N-isopropyl-5-(4-(2-(isoquinolin-4-yl)acetamido)-2-methylphenyl) nicotinamide]
7 | 0.251 to 0.5 | 2 to 3 | Cc1cc(NC(=O)Cc2cccc3cnccc23)ccc1-c1cnc(N)c(C(=O)NC(C)C)c1 [Example 211, 2-amino-N-isopropyl-5-(4-(2-(isoquinolin-5-yl)acetamido)-2-methylphenyl) nicotinamide]
8 | 1 to 2 | > 5 | Cc1cc(NC(=O)Cc2cccc3ncccc23)ccc1-c1cnc(N)c(C(=O)NC(C)C)c1 [Example 212, 2-amino-N-isopropyl-5-(2-methyl-4-(2-(quinolin-5-yl)acetamido)phenyl)nicotinamide]
9 | 1 to 2 | > 5 | Cc1cc(NC(=O)CC2CC2)ccc1-c1cnc(N)c(C(=O)NC(C)C)c1 [Example 213, 2-amino-5-(4-(2-cyclopropyl-acetamido)-2-methylphenyl)-N-isopropylnicotinamide]
10 | 0.251 to 0.5 | > 5 | Cc1cc(NC(=O)CC2CCC2)ccc1-c1cnc(N)c(C(=O)NC(C)C)c1 [Example 214, 2-amino-5-(4-(2-cyclobutylacetamido)-2-methylphenyl)-N-isopropylnicotinamide]
11 | > 5 | > 5 | Cc1cc(NC(=O)CC2CCCC2)ccc1-c1cnc(N)c(C(=O)NC(C)C)c1 [Example 215, 2-amino-5-(4-(2-cyclopentylacetamido)-2-methylphenyl)-N-isopropylnicotinamide]
12 | 1 to 2 | > 5 | Cc1cc(NC(=O)CC2CCCCC2)ccc1-c1cnc(N)c(C(=O)NC(C)C)c1 [Example 216, 2-amino-5-(4-(2-cyclohexylacetamido)-2-methylphenyl)-N-isopropylnicotinamide]
13 | > 5 | 0.501 to 1 | Cc1cc(NC(=O)c2ccccc2)ccc1-c1cnc(N)c(C(=O)NC(C)C)c1 [Example 217, 2-amino-5-(4-benzamido-2-methylphenyl)-N-isopropylnicotinamide]
14 | 1 to 2 | > 5 | Cc1cc(NC(=O)N(C)c2ccccc2)ccc1-c1cnc(N)c(C(=O)NC(C)C)c1 [Example 218, 2-amino-N-isopropyl-5-(2-methyl-4-(3-methyl-3-phenylureido)phenyl)nicotinamide]

Row | Compound | IC50 [1] [µM] | IC50 (PERK) [µM]
15 | Cc1cc(NC(=O)Oc2ccccc2)ccc1-c1cnc(N)c(C(=O)NC(C)C)c1 [Example 219, phenyl (4-(6-amino-5-(isopropylcarbamoyl)pyridin-3-yl)-3-methylphenyl)carbamate] | 1 to 2 | 1 to 2
